Results: the NIST ThermoML archive (doi:10.1021/je060271a)
Several values for one entry are separate records, joined by “and”; a condition that tells them apart may be missing. Equal values may be shown once.

Settings: 343.15 K, Liquid, Vibrating tube method

CCCCCC(=O)OCC(COC(=O)CCCCC)(COC(=O)CCCCC)COC(=O)CCCCC [pentaerythritol tetrahexanoate]
Settings	mass density
242.7 kPa	957.2 kg/m3
242.9 kPa	957.3 kg/m3
243.1 kPa	957.3 kg/m3
243.2 kPa	957.3 kg/m3 and 957.2 kg/m3
243.6 kPa	957.2 kg/m3
243.9 kPa	957.3 kg/m3 and 957.1 kg/m3
244.3 kPa	957.3 kg/m3
244.5 kPa	957.2 kg/m3 and 957.3 kg/m3
244.8 kPa	957.3 kg/m3
245 kPa	957.2 kg/m3 and 957.4 kg/m3
245.3 kPa	957.3 kg/m3 and 957.2 kg/m3
245.5 kPa	957.2 kg/m3
245.7 kPa	957.2 kg/m3
245.9 kPa	957.3 kg/m3
246.2 kPa	957.4 kg/m3
246.4 kPa	957.3 kg/m3
246.6 kPa	957.3 kg/m3
249 kPa	957.2 kg/m3
249.5 kPa	957.2 kg/m3
249.9 kPa	957.4 kg/m3
250 kPa	957.2 kg/m3
250.2 kPa	957.1 kg/m3
251.6 kPa	957.3 kg/m3
251.8 kPa	957.3 kg/m3 and 957.2 kg/m3
251.9 kPa	957.3 kg/m3
252.3 kPa	957.3 kg/m3 and 957.2 kg/m3
252.6 kPa	957.1 kg/m3
252.8 kPa	957.2 kg/m3
253.2 kPa	957.2 kg/m3
253.3 kPa	957.3 kg/m3 and 957.2 kg/m3 and 957.4 kg/m3
253.7 kPa	957.2 kg/m3
254 kPa	957.2 kg/m3
254.4 kPa	957.2 kg/m3
254.9 kPa	957.3 kg/m3
255.1 kPa	957.2 kg/m3 and 957.3 kg/m3
255.4 kPa	957.3 kg/m3
255.6 kPa	957.4 kg/m3
256.3 kPa	957.3 kg/m3
256.5 kPa	957.1 kg/m3
256.6 kPa	957.2 kg/m3
256.8 kPa	957.2 kg/m3
257 kPa	957.2 kg/m3
257.3 kPa	957.3 kg/m3
257.5 kPa	957.2 kg/m3
257.7 kPa	957.3 kg/m3
257.9 kPa	957.3 kg/m3
258.2 kPa	957.2 kg/m3
259.2 kPa	957.2 kg/m3
259.6 kPa	957.4 kg/m3
259.9 kPa	957.3 kg/m3
260.1 kPa	957.3 kg/m3
260.4 kPa	957.3 kg/m3
260.6 kPa	957.3 kg/m3
261 kPa	957.3 kg/m3 and 957.2 kg/m3
261.3 kPa	957.2 kg/m3
261.5 kPa	957.2 kg/m3
261.7 kPa	957.2 kg/m3
261.8 kPa	957.3 kg/m3
262.2 kPa	957.3 kg/m3
262.5 kPa	957.4 kg/m3
262.9 kPa	957.4 kg/m3 and 957.2 kg/m3
263 kPa	957.2 kg/m3
263.4 kPa	957.1 kg/m3 and 957.4 kg/m3 and 957.3 kg/m3
263.7 kPa	957.4 kg/m3 and 957.3 kg/m3
266.9 kPa	957.4 kg/m3
270.7 kPa	957.2 kg/m3
271.2 kPa	957.3 kg/m3
273.5 kPa	957.3 kg/m3
273.6 kPa	957.4 kg/m3
274 kPa	957.3 kg/m3
274.3 kPa	957.3 kg/m3
275.2 kPa	957.3 kg/m3
275.6 kPa	957.4 kg/m3
275.7 kPa	957.4 kg/m3
275.9 kPa	957.2 kg/m3
276.1 kPa	957.4 kg/m3
276.4 kPa	957.2 kg/m3
276.6 kPa	957.4 kg/m3
276.9 kPa	957.3 kg/m3
277.3 kPa	957.3 kg/m3
277.6 kPa	957.3 kg/m3
278 kPa	957.3 kg/m3
278.2 kPa	957.2 kg/m3
278.3 kPa	957.2 kg/m3
278.7 kPa	957.3 kg/m3
279 kPa	957.3 kg/m3
279.2 kPa	957.3 kg/m3
279.4 kPa	957.2 kg/m3
279.6 kPa	957.2 kg/m3
285.3 kPa	957.4 kg/m3
285.6 kPa	957.4 kg/m3 and 957.2 kg/m3
286.1 kPa	957.3 kg/m3
286.3 kPa	957.3 kg/m3
286.5 kPa	957.3 kg/m3
286.7 kPa	957.3 kg/m3
287 kPa	957.4 kg/m3
287.2 kPa	957.1 kg/m3
287.4 kPa	957.3 kg/m3
287.5 kPa	957.2 kg/m3
287.9 kPa	957.3 kg/m3
288.2 kPa	957.2 kg/m3
288.6 kPa	957.3 kg/m3
288.7 kPa	957.2 kg/m3
288.9 kPa	957.3 kg/m3
289.1 kPa	957.3 kg/m3
289.4 kPa	957.2 kg/m3
289.8 kPa	957.2 kg/m3 and 957.3 kg/m3
291.2 kPa	957.3 kg/m3
291.4 kPa	957.3 kg/m3
291.5 kPa	957.4 kg/m3 and 957.2 kg/m3
291.9 kPa	957.4 kg/m3
292.2 kPa	957.3 kg/m3
292.4 kPa	957.3 kg/m3 and 957.4 kg/m3
292.7 kPa	957.4 kg/m3
293.1 kPa	957.3 kg/m3
293.4 kPa	957.3 kg/m3
293.6 kPa	957.3 kg/m3
294.6 kPa	957.3 kg/m3
294.7 kPa	957.3 kg/m3
296.4 kPa	957.4 kg/m3 and 957.3 kg/m3
296.6 kPa	957.3 kg/m3
297.1 kPa	957.3 kg/m3
297.3 kPa	957.3 kg/m3
297.6 kPa	957.4 kg/m3
298 kPa	957.4 kg/m3 and 957.3 kg/m3 and 957.2 kg/m3
298.5 kPa	957.3 kg/m3
298.8 kPa	957.4 kg/m3
299 kPa	957.2 kg/m3
299.9 kPa	957.3 kg/m3
305.4 kPa	957.4 kg/m3
305.8 kPa	957.2 kg/m3
306 kPa	957.3 kg/m3
306.3 kPa	957.4 kg/m3
306.8 kPa	957.4 kg/m3 and 957.3 kg/m3
307.5 kPa	957.3 kg/m3
307.9 kPa	957.3 kg/m3
308.2 kPa	957.3 kg/m3
308.4 kPa	957.2 kg/m3
308.7 kPa	957.5 kg/m3 and 957.3 kg/m3
309.1 kPa	957.3 kg/m3
309.3 kPa	957.3 kg/m3
309.4 kPa	957.4 kg/m3
309.8 kPa	957.1 kg/m3
310.6 kPa	957.3 kg/m3
311.2 kPa	957.3 kg/m3
311.7 kPa	957.4 kg/m3
311.9 kPa	957.5 kg/m3
312 kPa	957.2 kg/m3
312.2 kPa	957.3 kg/m3
312.5 kPa	957.3 kg/m3
315 kPa	957.3 kg/m3
315.7 kPa	957.4 kg/m3
316 kPa	957.4 kg/m3
316.5 kPa	957.4 kg/m3
316.6 kPa	957.4 kg/m3
316.7 kPa	957.4 kg/m3
318.5 kPa	957.4 kg/m3
318.8 kPa	957.3 kg/m3
319.3 kPa	957.3 kg/m3 and 957.2 kg/m3 and 957.4 kg/m3
319.7 kPa	957.3 kg/m3
319.9 kPa	957.3 kg/m3
320.4 kPa	957.2 kg/m3
320.7 kPa	957.3 kg/m3
321.2 kPa	957.3 kg/m3
322.1 kPa	957.1 kg/m3
322.5 kPa	957.3 kg/m3
322.8 kPa	957.3 kg/m3
323.1 kPa	957.3 kg/m3
323.2 kPa	957.4 kg/m3
323.3 kPa	957.2 kg/m3
323.7 kPa	957.4 kg/m3
323.9 kPa	957.3 kg/m3
324 kPa	957.3 kg/m3
324.2 kPa	957.3 kg/m3
324.5 kPa	957.3 kg/m3
324.7 kPa	957.3 kg/m3
325.1 kPa	957.3 kg/m3
325.2 kPa	957.3 kg/m3
325.9 kPa	957.3 kg/m3
326.3 kPa	957.3 kg/m3
326.4 kPa	957.4 kg/m3
326.6 kPa	957.3 kg/m3
327 kPa	957.2 kg/m3
327.1 kPa	957.3 kg/m3
327.5 kPa	957.4 kg/m3
327.7 kPa	957.2 kg/m3
328 kPa	957.4 kg/m3
333.2 kPa	957.4 kg/m3
333.4 kPa	957.3 kg/m3
333.7 kPa	957.2 kg/m3
333.9 kPa	957.3 kg/m3
334.3 kPa	957.2 kg/m3
334.6 kPa	957.3 kg/m3
334.8 kPa	957.3 kg/m3
335.1 kPa	957.4 kg/m3
335.5 kPa	957.3 kg/m3
336.2 kPa	957.3 kg/m3
336.5 kPa	957.3 kg/m3
336.9 kPa	957.4 kg/m3
338.1 kPa	957.3 kg/m3
338.6 kPa	957.3 kg/m3
339.1 kPa	957.3 kg/m3 and 957.2 kg/m3
339.5 kPa	957.3 kg/m3
339.8 kPa	957.3 kg/m3
340.2 kPa	957.3 kg/m3
340.5 kPa	957.3 kg/m3
340.9 kPa	957.5 kg/m3
341.6 kPa	957.4 kg/m3 and 957.2 kg/m3
341.9 kPa	957.4 kg/m3
342.1 kPa	957.4 kg/m3
342.8 kPa	957.2 kg/m3 and 957.3 kg/m3
343.1 kPa	957.3 kg/m3
343.5 kPa	957.3 kg/m3
343.6 kPa	957.4 kg/m3
344.2 kPa	957.4 kg/m3
344.3 kPa	957.3 kg/m3
345.9 kPa	957.3 kg/m3
346.4 kPa	957.4 kg/m3
346.8 kPa	957.3 kg/m3
347.3 kPa	957.4 kg/m3
348 kPa	957.3 kg/m3
348.3 kPa	957.2 kg/m3
351.8 kPa	957.3 kg/m3
352.2 kPa	957.2 kg/m3
352.7 kPa	957.4 kg/m3
352.9 kPa	957.2 kg/m3
353 kPa	957.3 kg/m3
358.8 kPa	957.4 kg/m3
359.3 kPa	957.3 kg/m3
359.6 kPa	957.4 kg/m3
363.3 kPa	957.4 kg/m3
363.6 kPa	957.3 kg/m3
364 kPa	957.4 kg/m3
364.5 kPa	957.4 kg/m3
364.7 kPa	957.4 kg/m3
365 kPa	957.4 kg/m3
365.4 kPa	957.4 kg/m3
368.8 kPa	957.3 kg/m3
369.2 kPa	957.3 kg/m3
369.7 kPa	957.3 kg/m3
370.1 kPa	957.4 kg/m3
372.8 kPa	957.3 kg/m3
373.2 kPa	957.4 kg/m3
373.7 kPa	957.4 kg/m3
374.1 kPa	957.5 kg/m3 and 957.4 kg/m3
374.7 kPa	957.3 kg/m3
374.8 kPa	957.3 kg/m3
375.5 kPa	957.3 kg/m3
375.8 kPa	957.2 kg/m3
376 kPa	957.3 kg/m3
376.5 kPa	957.4 kg/m3
376.8 kPa	957.4 kg/m3
377.4 kPa	957.3 kg/m3
377.5 kPa	957.4 kg/m3
378.1 kPa	957.4 kg/m3
378.6 kPa	957.4 kg/m3
379.1 kPa	957.3 kg/m3
380.5 kPa	957.4 kg/m3
380.8 kPa	957.5 kg/m3
381.2 kPa	957.5 kg/m3
381.5 kPa	957.5 kg/m3
382.1 kPa	957.3 kg/m3
382.7 kPa	957.3 kg/m3
382.9 kPa	957.4 kg/m3
383.6 kPa	957.4 kg/m3
383.8 kPa	957.4 kg/m3
384.3 kPa	957.4 kg/m3
384.5 kPa	957.4 kg/m3
384.8 kPa	957.5 kg/m3
385.5 kPa	957.4 kg/m3 and 957.5 kg/m3
385.9 kPa	957.4 kg/m3
386.7 kPa	957.5 kg/m3
390.6 kPa	957.4 kg/m3
390.9 kPa	957.4 kg/m3
391.4 kPa	957.3 kg/m3
391.8 kPa	957.5 kg/m3
392 kPa	957.3 kg/m3
392.8 kPa	957.4 kg/m3
393.2 kPa	957.4 kg/m3
393.7 kPa	957.4 kg/m3
394 kPa	957.4 kg/m3
394.9 kPa	957.3 kg/m3
395.1 kPa	957.5 kg/m3
395.4 kPa	957.3 kg/m3
395.8 kPa	957.3 kg/m3
396.3 kPa	957.4 kg/m3
396.8 kPa	957.4 kg/m3
397.2 kPa	957.4 kg/m3
397.7 kPa	957.5 kg/m3
397.9 kPa	957.4 kg/m3
